From ChEMBL document CHEMBL1201862, “PubChem BioAssay data set” (2004)
Where “and” joins values, the source holds several entries; their conditions need not be identical. Equal entries are not always repeated.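 Protocol summary: plate cells (96-well), add compound at 5 concentrations, incubate 48 h, interpolate endpoints linearly. Abbreviation: GI50, concentration required for 50% inhibition of growth.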 Calls of active or inactive are those of the source. Cut-off read from the data, not from the text of the source: active = GI50 up to about 1.1 µM and inactive = higher.

Assays:
Assay in all cases: growth of human tumour cells (NCI), 48 h
OVCAR-8 = system: OVCAR-8
HOP-92 = system: HOP-92
CCRF-CEM = system: CCRF-CEM
U-251 = system: U-251
K562 = system: K562
CAKI-1 = system: CAKI-1
SK-MEL-5 = system: SK-MEL-5
KM12 = system: KM12
SN12C = system: SN12C
SW-620 = system: SW-620
RXF 393 = system: RXF 393
HCC 2998 = system: HCC 2998
LOX IMVI = system: LOX IMVI
SNB-75 = system: SNB-75
HCT-15 = system: HCT-15
IGROV-1 = system: IGROV-1
SF-295 = system: SF-295
UACC-62 = system: UACC-62
COLO 205 = system: COLO 205
NCI/ADR-RES = system: NCI/ADR-RES

Compound | GI50 (OVCAR-8) | GI50 (HOP-92) | GI50 (CCRF-CEM) | GI50 (U-251) | GI50 (K562) | GI50 (CAKI-1) | GI50 (SK-MEL-5) | GI50 (KM12) | GI50 (SN12C) | GI50 (SW-620) | GI50 (RXF 393) | GI50 (HCC 2998) | GI50 (LOX IMVI) | GI50 (SNB-75) | GI50 (HCT-15) [µM] | GI50 (IGROV-1) | GI50 (SF-295) | GI50 (UACC-62) | GI50 (COLO 205) | GI50 (NCI/ADR-RES)
Cc1cc(OCC(O)CO)ccc1Cl (configuration not stated) | > 100 µM (inactive) | > 100 µM (inactive) | > 100 µM (inactive) | > 100 µM (inactive) | > 100 µM (inactive) | > 100 µM (inactive) | > 100 µM (inactive) | > 100 µM (inactive) | > 100 µM (inactive) | > 100 µM (inactive) | > 100 µM (inactive) | > 100 µM (inactive) | > 100 µM (inactive) | 87.3 µM (inactive) | > 100 | > 100 µM (inactive) | > 100 µM (inactive) | > 100 µM (inactive) | > 100 µM (inactive) | 
N#CCCN(CCC#N)c1ccc(/C=C2\N=C(c3cc([N+](=O)[O-])ccc3Cl)N(NC(=O)CC(=O)Nc3ccccc3Cl)C2=O)cc1 | > 100 µM (inactive) | > 100 µM (inactive) | > 100 µM (inactive) | > 100 µM (inactive) | > 100 µM (inactive) | > 100 µM (inactive) | > 100 µM (inactive) | > 100 µM (inactive) | > 100 µM (inactive) | > 100 µM (inactive) | > 100 µM (inactive) | > 100 µM (inactive) | > 100 µM (inactive) |  | > 100 | > 100 µM (inactive) | > 100 µM (inactive) | > 100 µM (inactive) | > 100 µM (inactive) | 
O=[N+]([O-])c1ccc(CNC2=NNS(=O)(=O)c3ccccc32)cc1 | > 100 µM (inactive) | > 100 µM (inactive) | 19.5 µM (inactive) | 72.1 µM (inactive) | 27 µM (inactive) | 26.6 µM (inactive) | > 100 µM (inactive) | > 100 µM (inactive) | > 100 µM (inactive) | > 100 µM (inactive) | > 100 µM (inactive) | > 100 µM (inactive) | 54 µM (inactive) |  | 75.5 | > 100 µM (inactive) | > 100 µM (inactive) | 34.6 µM (inactive) | > 100 µM (inactive) | 
COc1ccc(NC(=O)/C(=C/c2ccc(N(CCC#N)CCC#N)cc2)NC(=O)c2cc([N+](=O)[O-])ccc2Cl)cc1 | 38.9 µM (inactive) | > 100 µM (inactive) | 71.6 µM (inactive) | > 100 µM (inactive) | 6.76 µM (inactive) | 26.2 µM (inactive) | > 100 µM (inactive) | 68.2 µM (inactive) | > 100 µM (inactive) | 98.6 µM (inactive) | > 100 µM (inactive) | 45.8 µM (inactive) | 18.4 µM (inactive) |  | 4.62 | 65.9 µM (inactive) | 19.6 µM (inactive) | 13.3 µM (inactive) | 59.8 µM (inactive) | 
CN(C)C(=S)/N=C1\SC(=N\c2ccccc2)/C(=N/c2ccccc2)N1c1ccc([N+](=O)[O-])cc1 | > 100 µM (inactive) | > 100 µM (inactive) | > 100 µM (inactive) | > 100 µM (inactive) | > 100 µM (inactive) | > 100 µM (inactive) | > 100 µM (inactive) | > 100 µM (inactive) | > 100 µM (inactive) |  | 21.8 µM (inactive) | > 100 µM (inactive) |  | > 100 µM (inactive) | > 100 | > 100 µM (inactive) | > 100 µM (inactive) | > 100 µM (inactive) | > 100 µM (inactive) | > 100 µM (inactive)
CN(C)C(=S)/N=c1\ss/c(=N\C(=S)N(C)C)n1C1CCCCC1 | 84.3 µM (inactive) |  | 32.7 µM (inactive) | 27.4 µM (inactive) | 28.1 µM (inactive) | > 100 µM (inactive) | 2.29 µM (inactive) | > 100 µM (inactive) | > 100 µM (inactive) | > 100 µM (inactive) | > 100 µM (inactive) | > 100 µM (inactive) | 86.3 µM (inactive) | 76.4 µM (inactive) | > 100 | > 100 µM (inactive) | > 100 µM (inactive) | 1.06 µM (active) | 30.8 µM (inactive) | 
COC(=N)C(C)C |  | > 100 µM (inactive) | > 100 µM (inactive) | > 100 µM (inactive) | > 100 µM (inactive) | > 100 µM (inactive) | > 100 µM (inactive) | > 100 µM (inactive) | > 100 µM (inactive) | > 100 µM (inactive) | > 100 µM (inactive) | > 100 µM (inactive) | > 100 µM (inactive) | > 100 µM (inactive) | > 100 | > 100 µM (inactive) | > 100 µM (inactive) | > 100 µM (inactive) | > 100 µM (inactive) | 
Cn1c2c(c3ccccc31)CCN(CCCN1CCN(c3ccccc3)CC1)C2=O | 21.6 µM (inactive) | 15.7 µM (inactive) | 28.2 µM (inactive) | 16.6 µM (inactive) | 17.3 µM (inactive) | 16.7 µM (inactive) | 18.9 µM (inactive) |  | 20.6 µM (inactive) | 22.1 µM (inactive) | 15.8 µM (inactive) |  | 22.9 µM (inactive) |  | 19.1 | 20.8 µM (inactive) | 23.1 µM (inactive) | 19.3 µM (inactive) | 17.6 µM (inactive) | 
NC(CSC(=O)c1ccccc1)C(=O)O (configuration not stated) | > 100 µM (inactive) | > 100 µM (inactive) | > 100 µM (inactive) | > 100 µM (inactive) |  | > 100 µM (inactive) | > 100 µM (inactive) | > 100 µM (inactive) | > 100 µM (inactive) | > 100 µM (inactive) | > 100 µM (inactive) |  | > 100 µM (inactive) | > 100 µM (inactive) | > 100 | > 100 µM (inactive) | > 100 µM (inactive) | > 100 µM (inactive) | > 100 µM (inactive) | > 100 µM (inactive)
CN1CCN(C(=S)N(C(=O)c2ccc(Cl)cc2)C2CCCCC2)CC1 | > 100 µM (inactive) | > 100 µM (inactive) | 72.4 µM (inactive) | > 100 µM (inactive) | 51.3 µM (inactive) |  | > 100 µM (inactive) | > 100 µM (inactive) | > 100 µM (inactive) | > 100 µM (inactive) | > 100 µM (inactive) | > 100 µM (inactive) | > 100 µM (inactive) | 20 µM (inactive) | > 100 | > 100 µM (inactive) | > 100 µM (inactive) | > 100 µM (inactive) | > 100 µM (inactive) | 
[N-]=[N+]=NC1(Cc2ccccc2)C(=O)Nc2ccccc2C1=O (configuration not stated) | > 100 µM (inactive) | > 100 µM (inactive) | > 100 µM (inactive) | > 100 µM (inactive) | > 100 µM (inactive) | > 100 µM (inactive) | > 100 µM (inactive) | > 100 µM (inactive) | > 100 µM (inactive) | > 100 µM (inactive) |  | > 100 µM (inactive) | > 100 µM (inactive) | > 100 µM (inactive) | > 100 | 88.7 µM (inactive) | > 100 µM (inactive) | > 100 µM (inactive) | > 100 µM (inactive) | 
C=C1CCCC2[C@](C)(CC3=C(O)C(=O)C=C(OC)C3=O)[C@@H](C)CC[C@]12C (some centres not stated) | 4.41 µM (inactive) |  | 2.36 µM (inactive) | 4.06 µM (inactive) | 4.07 µM (inactive) | 3.62 µM (inactive) | 2.42 µM (inactive) | 2.72 µM (inactive) | 10.5 µM (inactive) | 3.01 µM (inactive) | 2.73 µM (inactive) | 7.89 µM (inactive) | 4.97 µM (inactive) | 3.94 µM (inactive) | 2.71 | 3.22 µM (inactive) | 2.51 µM (inactive) | 2.22 µM (inactive) | 7.35 µM (inactive) | 
CC#CC#C/C=C1\C=CC2(OC=CC2OC(C)=O)O1 (configuration not stated) | 31.4 µM (inactive) and 17.9 µM (inactive) | 20.6 µM (inactive) and 22.3 µM (inactive) | 8.41 µM (inactive) and 14 µM (inactive) | 19.5 µM (inactive) and 18.5 µM (inactive) | 25.6 µM (inactive) and 19 µM (inactive) | 15.2 µM (inactive) and > 10 µM (inactive) | 17.9 µM (inactive) | 21.7 µM (inactive) and 21.8 µM (inactive) | 15.7 µM (inactive) and 16.5 µM (inactive) | 24.8 µM (inactive) and 18.8 µM (inactive) | 12.6 µM (inactive) | 22 µM (inactive) and 28 µM (inactive) | 30.1 µM (inactive) and 16.1 µM (inactive) | 38.3 µM (inactive) and 24.9 µM (inactive) |  | > 42.9 µM (inactive) and 42 µM (inactive) | 47.8 µM (inactive) and 34.3 µM (inactive) | 18.9 µM (inactive) and 16.4 µM (inactive) | 15 µM (inactive) and 16.4 µM (inactive) | 28.6 µM (inactive)
O=C1C=C2SC3C[C@@]24CC1(O)[N+]1=c2c4c(c(O)c4c2=C(C=N4)CC1)N3 | 0.33 µM (active) | 1.35 µM (inactive) | 0.321 µM (active) | 1.75 µM (inactive) | 0.64 µM (active) | 2.24 µM (inactive) | 1.5 µM (inactive) | 1.53 µM (inactive) | 1.22 µM (inactive) | 0.33 µM (active) | 1.35 µM (inactive) |  | 0.546 µM (active) | 1.83 µM (inactive) | 1.64 | 1.57 µM (inactive) | 1.58 µM (inactive) | 0.533 µM (active) | 0.176 µM (active) | 0.887 µM (active)
COc1cc(CCc2ccc(N)cc2)cc(OC)c1OC | > 75.9 µM (inactive) | 35.4 µM (inactive) | 49.4 µM (inactive) | > 53.2 µM (inactive) | 46.1 µM (inactive) | 67.8 µM (inactive) | 29.4 µM (inactive) | 18.7 µM (inactive) | > 54.8 µM (inactive) | 45.5 µM (inactive) | 50.9 µM (inactive) | > 47.8 µM (inactive) | 61 µM (inactive) | > 56 µM (inactive) | 43.4 | > 86.9 µM (inactive) | 12.2 µM (inactive) | 38.7 µM (inactive) | 18.9 µM (inactive) | 
